According to patent US11655231B2, “Etoricoxib solvates and preparation method thereof” (Tianjin University, priority 2020, dated 2023):
In brackets after ≈: the same amount, converted by molar mass. Where two headings read alike, the source gives them in different places.

Experiments:
[1] = Solubility in aqueous solution; type: physicochemical; details: 25° C. aqueous solution
Description: Therefore, the 1,2-propanediol and DMSO solvates of etoricoxib obtained in the present disclosure both effectively improve the solubility of etoricoxib in an aqueous solution.

[2] = Thermal and moisture stability on storage at room/ambient temperature; type: physicochemical; details: for moisture stability (in words): ambient temperature, transformation into a hydrate; for thermal stability (in words): stored at room temperature
Method: The 1,2-propanediol and DMSO solvates of etoricoxib obtained in the present disclosure have a relatively high desolvation temperature. The 1,2-propanediol and the DMSO have boiling points of […] and 189° C., respectively. […] Moreover, the host-guest intermolecular interaction energies in the crystal structure of etoricoxib 1,2-propanediol and DMSO solvates are −37.22 kJ/mol and −43.37 kJ/mol respectively, which are much higher than that (−30.53 kJ/mol) in hemihydrate crystal structure. It is difficult for water molecules to enter a unit cell of the 1,2-propanediol and DMSO solvates to replace the 1,2-propanediol and DMSO molecules at an ambient temperature. […] As a result, the 1,2-propanediol and DMSO solvates of etoricoxib obtained in the present disclosure both have prominent thermal stability and moisture stability.

[3] = Onset temperature of desolvation in TG test (thermogravimetric analysis); type: physicochemical; details: TGA, heating rate 10° C./min, 25° C. to 250° C., nitrogen
[4] = Crystal size and size distribution; type: physicochemical
Method: (§1) The 1,2-propanediol and DMSO solvates of etoricoxib obtained in the present disclosure are rod-like and bulk crystals, respectively, as shown in FIG. 10 and FIG. 11. The etoricoxib crystal form V in the prior art has a volume-average size of 16 μm and a repose angle of 44°; and the etoricoxib hemihydrate has a volume-average size of 19 μm and a repose angle of 48°. […] Therefore, the 1,2-propanediol and DMSO solvates of etoricoxib obtained in the present disclosure are perfect crystals with smooth surfaces, which are not easy to agglomerate and have prominent flowability.

[5] = Repose angle (particle flowability); type: physicochemical
Method: as §1

[6] = prior-art hydrates, cited from earlier work
[7] = listed as 1,2-propanediol solvate of etoricoxib
[8] = listed as DMSO solvate of etoricoxib
[9] = listed as etoricoxib hemihydrate

With Cc1ccc(-c2ncc(Cl)cc2-c2ccc(S(C)(=O)=O)cc2)cn1 [1,2-propanediol solvate] the “solubility in aqueous solution” value [1, 7] was 527 µg/mL, the “moisture stability (in words)” value [2] was “prominent moisture stability” and the “thermal stability (in words)” value [2] was “excellent thermal stability”. The “Onset temperature of desolvation in TG test” value (“Onset temperature … in TG test” below) [3] was 94 ± 1 °C, the “Onset temperature … in TG test” value [3, 7] was 94 °C and the primary crystal size [4] was 100 μm. For the same molecule, the “variation coefficient of size distribution” value (“variation coefficient” below) [4, 7] was 23.6%.

In the case of Cc1ccc(-c2ncc(Cl)cc2-c2ccc(S(C)(=O)=O)cc2)cn1 [DMSO solvate], the “solubility in aqueous solution” value [1, 8] is reported as 1465 µg/mL, the “moisture stability (in words)” value [2] is reported as “prominent moisture stability” and the “thermal stability (in words)” value [2] is reported as “excellent thermal stability”. For the same molecule, the “Onset temperature … in TG test” value [3] was 66 ± 1 °C, the “Onset temperature … in TG test” value [3, 8] was 66 °C and the volume-average size [4] was 120 μm. The “variation coefficient” value [4, 8] was 19.7%.

For Cc1ccc(-c2ncc(Cl)cc2-c2ccc(S(C)(=O)=O)cc2)cn1 [Methanol solvate], the “Onset temperature … in TG test” value [3] was 27 ± 1 °C and the “Onset temperature … in TG test” value ([3]; listed as methanol solvate of etoricoxib) was 27 °C.

With Cc1ccc(-c2ncc(Cl)cc2-c2ccc(S(C)(=O)=O)cc2)cn1 [etoricoxib crystal form V, 5-chloro-6′-methyl-3-[4-(methylsulfonyl)phenyl]-2,3′-bipyridine, reference compound] the repose angle [5] was 44 °, the “solubility in aqueous solution” value [1] was 307.9 µg/mL (≈ 858 µM) and the “variation coefficient” value [4] was 57.2%. The volume-average size [4] was 16 μm.

In the case of Cc1ccc(-c2ncc(Cl)cc2-c2ccc(S(C)(=O)=O)cc2)cn1 [Hemihydrate, 5-chloro-6′-methyl-3-[4-(methylsulfonyl)phenyl]-2,3′-bipyridine], the repose angle [5, 9] is given as 48 °, the “onset temperature of dehydration” value ([6]; listed as hemihydrate) is given as “lower than 56 °C” and the “variation coefficient” value [4] is given as 53.6%. The volume-average size [4, 9] was 19 μm.

In the case of Cc1ccc(-c2ncc(Cl)cc2-c2ccc(S(C)(=O)=O)cc2)cn1 [Sesquihydrate, 5-chloro-6′-methyl-3-[4-(methylsulfonyl)phenyl]-2,3′-bipyridine], the “onset temperature of dehydration” value ([6]; listed as sesquihydrate) is given as “lower than 23 °C”.

With Cc1ccc(-c2ncc(Cl)cc2-c2ccc(S(C)(=O)=O)cc2)cn1 [EG solvate] the “Onset temperature … in TG test” value [3] was 96 ± 1 °C and the “Onset temperature … in TG test” value ([3]; listed as EG solvate of etoricoxib) was 96 °C.

For Cc1ccc(-c2ncc(Cl)cc2-c2ccc(S(C)(=O)=O)cc2)cn1 [NMP solvate], the “Onset temperature … in TG test” value [3] was 79 ± 1 °C and the “Onset temperature … in TG test” value ([3]; listed as NMP solvate of etoricoxib) was 79 °C.

With Cc1ccc(-c2ncc(Cl)cc2-c2ccc(S(C)(=O)=O)cc2)cn1 [Formamide solvate] the “Onset temperature … in TG test” value ([3]; listed as formamide solvate of etoricoxib) was 90 °C.
